These results are taken from paper PMC5943930, “Identification of Inhibitors Targeting Ferredoxin-NADP^+ Reductase from the Xanthomonas citri subsp. citri Phytopathogenic Bacteria” (Molecules : A Journal of Synthetic Chemistry and Natural …, 2017).

Read-outs that look alike come from different tables or passages of the source. Some results are limits rather than exact numbers.

The target of assay [1] is T1, XccFPR (Xanthomonas citri pv. citri, UniProt A0AAI7ZED9).
T1 sequence (A0AAI7ZED9 1-259): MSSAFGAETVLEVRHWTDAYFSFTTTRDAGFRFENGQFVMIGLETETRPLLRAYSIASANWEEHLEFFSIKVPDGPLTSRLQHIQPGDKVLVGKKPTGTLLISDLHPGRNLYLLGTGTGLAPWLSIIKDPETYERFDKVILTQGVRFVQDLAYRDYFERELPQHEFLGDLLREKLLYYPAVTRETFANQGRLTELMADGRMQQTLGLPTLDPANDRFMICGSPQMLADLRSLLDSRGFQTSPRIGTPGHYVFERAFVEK
As to the kind of experiment: NADPH-dependent DCPIP diaphorase activity of XccFPR, dose-response of inhibitors. It is filed as biochemical, Xanthomonas citri subsp. citri. To be noted: for inhibitory effect on XccFPR (in words): C12 derived compounds D1–D8. The method, then:
(§1) When assayed in regular cuvettes, the DCPIP diaphorase activity of XccFPR was determined at 25 °C using a Cary 100 (Agilent Technologies Inc., Santa Clara, CA, USA) spectrophotometer as previously established. […] Positive controls (without any hit compound) were included in every reaction set. […] The DMSO concentration was kept at 2% in all samples. All kinetic experiments were performed in triplicate. The effect of the inhibitors on Km and kcat was determined by fitting the datasets to the Michaelis-Menten model. Additionally, data were globally fit to either Lineweaver-Burk equations for uncompetitive or non-competitive inhibition, yielding Ki for each compound (Equations (1) and (2), respectively).

The target in assay [2] is T1, XccFPR. The assay can be described thus: Thermal stability of XccFPR, midpoint temperature for flavin release (TmFAD). It is filed as binding, Xanthomonas citri subsp. citri. As to conditions: 4 µM XccFPR. An excerpt:
The increase in fluorescence of the FAD cofactor when dissociated from the protein upon thermal unfolding was used to evaluate XccFPR stability under different conditions and to assess related midpoint temperature for flavin release (TmFAD). Fluorescence thermal denaturation curves were monitored on 96-well plates using a Stratagene Mx3005P qPCR detection system (Agilent Technologies Inc., Santa Clara, CA, USA). A FAM filter set (λexc = 492 nm; λem = 516 nm), which overlaps the fluorescence spectrum of the isoalloxazine ring was used to evaluate XccFPR midpoint temperature for flavin release (TmFAD) when free or in the presence of selected compounds. Measurements were performed using 4 µM protein in 50 mM Tris/HCl, pH 8.0 in a 100 µL final volume. Each measurement was done in triplicate.

Assay [3] has as its target T2, AnFNR (Nostoc sp., UniProt P21890).
T2 construct: made in house; host or cells: Escherichia coli
The assay can be described thus: NADPH-dependent DCPIP diaphorase activity of AnFNR, dose-response of inhibitors. The format is biochemical, Anabaena PCC 7119. To be noted: 95 µM DCPIP, 50 μM NADPH; for IC50 / ICmax (concentration causing maximal inhibition): 25 °C, 2% DMSO, pH 8.0, 4 nM AnFNR; for IC50: 50 mM Tris/HCl, compound 0–800 μM; for % Inhibition at ICmax: 4 nM AnFNR. The method, then: We finally assessed the selectivity of our XccFPR inhibitors by testing the diaphorase activity of the plastidic Anabaena PCC 7119 FNR (AnFNR) at increasing concentrations of D2, D5 and D8 (Table 3).
as §1

Assay [4] deals with T1, XccFPR. The assay can be described thus: Inhibition constants and mechanisms, XccFPR diaphorase activity as a function of NADPH at increasing inhibitor concentrations. It is filed as biochemical, Xanthomonas citri subsp. citri. As to conditions: 25 °C, 50 mM Tris/HCl, 2% DMSO, pH 8.0; for Ki: global fit to Lineweaver–Burk inhibition model; for Inhibition Mechanism: versus NADPH. The method, then:
as §1
(1) [e]/V0=(1+[I]/K^′i)/kcat+Km/kcat·1/[S]
(2) [e]/V0=(1+[I]/Ki)/kcat+(1+[I]/Ki)·Km/kcat·1/[S]

The target in assay [5] is T1, XccFPR. The assay can be described thus: Steady-state kinetic parameters of XccFPR NADPH-dependent DCPIP diaphorase activity. The format is biochemical, Xanthomonas citri subsp. citri. The method, then: When assayed in regular cuvettes, the DCPIP diaphorase activity of XccFPR was determined at 25 °C using a Cary 100 (Agilent Technologies Inc., Santa Clara, CA, USA) spectrophotometer as previously established. […] Positive controls (without any hit compound) were included in every reaction set. […] All kinetic experiments were performed in triplicate. The effect of the inhibitors on Km and kcat was determined by fitting the datasets to the Michaelis-Menten model. Additionally, data were globally fit to either Lineweaver-Burk equations for uncompetitive or non-competitive inhibition, yielding Ki for each compound (Equations (1) and (2), respectively).

Assay [6] deals with Xcc. The assay can be described thus: Xcc growth/viability in liquid SB medium (colony-forming capacity). It is filed as cell-based, Xanthomonas citri subsp. citri. To be noted: 1 mM compound, 28 °C, 0–6 h, control 2% DMSO. The method, then:
(§2) To evaluate the sensitivity of Xcc to C5, C12, C17 and C19, 100 µL of a bacterial suspension (containing ~10^9 cells mL^−1) were mixed with 4 mL of SB medium (5 g L^−1 sucrose, 5 g L^−1 yeast extract, 5 g L^−1 peptone, and 1 g L^−1 glutamic acid, pH 7.0) and 0.7% (w v^−1) molten agar and poured onto SB-1.5% (w v^−1) agar plates supplemented with 25 µg mL^−1 ampicillin. After hardening, 2 µL of a 10, 100 and 1000 µM solution of each compound were added onto the agar surface. The zones of growth inhibition were photographed after incubation for 24 h at 28 °C. To assess the compound inhibition effect on Xcc growth in liquid medium, overnight cultures were subcultured into fresh SB medium at 2% inoculums and grown for 6 h in the presence of 1 mM C12. Samples were removed at 0, 2, 4 and 6 h, serially diluted and plated on SB-1.5% (w v^−1) agar. Colonies were counted after 48 h of incubation at 28 °C.

The test system of assay [7] is Xcc. The assay can be described thus: Xcc growth inhibition on SB-agar plates. As to conditions: 24 h at 28 °C. It is filed as cell-based, Xanthomonas citri subsp. citri. The method, then:
as §2

For assay [8], the target named is T1, XccFPR. As to conditions: ferricyanide as electron acceptor; cited from earlier work.
Setting [9] is: 25 °C, 50 mM Tris/HCl, 2% DMSO, pH 8.0, 20 nM XccFPR, 95 µM DCPIP, 50 μM NADPH.
[10] abbreviates: 25 °C, 50 mM Tris/HCl, 2% DMSO, pH 8.0, 20 nM XccFPR, 95 µM DCPIP, 50 μM NADPH, compound 0–800 μM.
[11] abbreviates: 25 °C, 2% DMSO, pH 8.0, 20 nM XccFPR, 95 µM DCPIP, 50 μM NADPH.
Setting [12] is: compound 2 mM, NADP+ 50 µM, DMSO 2 %.
The mark [13] stands for this setting: compound 1 mM, NADP+ 50 µM, DMSO 2 %.

T2 sequence (P21890 138-440 limits assumed): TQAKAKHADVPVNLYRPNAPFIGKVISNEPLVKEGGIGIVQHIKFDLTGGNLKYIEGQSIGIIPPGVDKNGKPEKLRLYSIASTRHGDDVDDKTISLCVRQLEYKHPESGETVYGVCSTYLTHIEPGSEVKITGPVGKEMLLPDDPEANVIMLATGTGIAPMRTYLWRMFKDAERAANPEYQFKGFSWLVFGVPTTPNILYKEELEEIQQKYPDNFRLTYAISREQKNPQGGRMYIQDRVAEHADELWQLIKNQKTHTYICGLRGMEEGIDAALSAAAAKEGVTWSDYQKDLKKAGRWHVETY

Turning to `CSc1sc(NC(=O)Nc2cccc(C(F)(F)F)c2)cc1C#N` [D2], the “ICmax (concentration causing maximal inhibition)” value in assay [1] (setting [9]) turned out to be 175 ± 1 µM. Further, the IC50 (commonly the concentration needed to halve the response being measured) in assay [1] (setting [10]) stood at 26 ± 1 µM. Besides, in assay [1], the “inhibitory effect on XccFPR (in words)” value is “moderate IC50 but high concentrations were required to abolish XccFPR activity”. In addition, the % Inhibition (usually the drop in the measured response relative to a control, in per cent) at ICmax in assay [1] (setting [11]) is on record as 100 ± 1%. Moreover, in assay [2] (compound 2 mM, DMSO 2 %), the TmFAD amounted to 41.7 ± 0.1 °C and the ΔTmFAD was 0.7±0.2 °C. In assay [2] (setting [12]), the TmFAD stood at 46.0 ± 0.1 °C and the ΔTmFAD came to 5.0±0.2 °C. In assay [3], the IC50 stood at 27 ± 1 µM, the “ICmax (concentration causing maximal inhibition)” value worked out at 100 ± 2 µM and the “% Inhibition at ICmax” value was 99 ± 11%. For the same molecule, in assay [4], affinity was put at a Ki of 28 ± 2 µM and the “Inhibition Mechanism” value is reported as “uncompetitive inhibitor”.
`Cc1c(S(=O)(=O)c2ccc(Cl)cc2)csc1C(=O)Nc1ccc(F)cc1F` [D8, 4-(4-chlorobenzenesulfonyl)-N-(2,4-difluorophenyl)-3-methylthiophene-2-carboxamide]: in assay [1], the IC50 came out at 38 ± 1 µM and the “inhibitory effect on XccFPR (in words)” value was “moderate IC50 but high concentrations were required to abolish XccFPR activity”. The “% Inhibition at ICmax” value in assay [1] (setting [11]) stood at 100 ± 1%. Moreover, in assay [3], 122 ± 1 µM corresponded to half-maximal inhibition (IC50), the “ICmax (concentration causing maximal inhibition)” value is greater than 350 µM and the “% Inhibition at ICmax” value was roughly 73%. In addition, in assay [4], the Ki (usually the dissociation constant of the complex between target and ligand, obtained from inhibition or displacement) is 62 ± 19 µM; the “Inhibition Mechanism” value is given as “Non-competitive”.
Molecule `O=C(Nc1ccc(Cl)cc1)Nc1nnc(SCc2ccc(Cl)cc2)s1` [D5, 1-[5-(4-Chloro-benzylsulfanyl)-[1,3,4]thiadiazol-2-yl]-3-(4-chloro-phenyl)-urea] had an IC50 in assay [1] of 6.6 ± 1.1 µM. For the same molecule, the “% Inhibition at ICmax” value in assay [1] (setting [11]) amounted to 100 ± 2%. Also, in assay [2] (compound 1 mM, DMSO 2 %), the TmFAD stood at 41.4 ± 0.1 °C and the ΔTmFAD turned out to be 0.4±0.2 °C. Moreover, in assay [2] (setting [13]), the TmFAD is 46.9 ± 0.1 °C and the ΔTmFAD amounted to 5.9±0.2 °C. Moreover, in assay [3], the IC50 came to 102 ± 1 µM, the “ICmax (concentration causing maximal inhibition)” value is greater than 300 µM and the “% Inhibition at ICmax” value is roughly 47%. In addition, in assay [4], the affinity corresponds to a Ki of 4.3 ± 1.1 µM and the “Inhibition Mechanism” value is reported as “Non-competitive”.
For `C[S+](C)[O-]` [DMSO], the “effect of solvent on XccFPR enzyme activity” value in assay [5] (DMSO below 3%) is “did not modify the kinetic parameters”; in assay [5] (DMSO percentages larger than 3%) it was “decreased the maximal rate constant”. Further, the ΔTmFAD in assay [2] (DMSO 2 %) was -0.4±0.2 °C. The TmFAD in assay [2] (DMSO 2 %, 50 mM Tris/HCl) is 40.6 ± 0.1 °C; in assay [2] (DMSO 5 %) it was 39.0 ± 0.1 °C; in assay [2] (DMSO 10 %), 37.7 ± 0.1 °C.
Regarding `CSc1sc(NC(=O)Nc2ccc(F)c(Cl)c2)c(-c2ccc(Cl)cc2)c1C#N` [C12, 1-(3-chloro-4-fluorophenyl)-3-[3-(4-chlorophenyl)-4-cyano-5-(methylsulfanyl)thiophen-2-yl]urea], the IC50 in assay [1] was found to be 7.7 ± 1 µM. For the same molecule, the “growth inhibition in liquid medium (bacterial viability)” value in assay [6] is recorded as “decrease of bacterial viability”. Besides, in assay [7] (2 µL of 10, 100 and 1000 µM solutions), the “Xcc growth inhibition on solid SB medium” value is reported as “inhibited Xcc growth at all concentrations assayed”. The “lowest concentration assayed that inhibited Xcc growth” value in assay [7] (solid SB medium) is listed as 10 µM. Also, in assay [4], the inhibitory constant (Ki) came to 4.2 ± 0.9 µM and the “Inhibition Mechanism” value was “Non-competitive”.
As for `NC(=O)c1ccc[n+]([C@@H]2O[C@H](COP(=O)([O-])OP(=O)(O)OC[C@H]3O[C@@H](n4cnc5c(N)ncnc54)[C@H](OP(=O)(O)O)[C@@H]3O)[C@@H](O)[C@H]2O)c1` [NADP^+], the TmFAD in assay [2] (NADP+ 50 µM, DMSO 2 %) was 46.7 ± 0.1 °C; in assay [2] (NADP+ 50 µM, no DMSO), 47.2 ± 0.1 °C. Further, the ΔTmFAD in assay [2] (NADP+ 50 µM, DMSO 2 %) was found to be 5.7±0.2 °C; in assay [2] (NADP+ 50 µM, no DMSO) it was 6.2±0.2 °C.
On to `NC(=O)C1=CN([C@@H]2O[C@H](COP(=O)(O)OP(=O)(O)OC[C@H]3O[C@@H](n4cnc5c(N)ncnc54)[C@H](OP(=O)(O)O)[C@@H]3O)[C@@H](O)[C@H]2O)C=CC1` [NADPH, reference compound], for which the kcat (in general, the number of substrate molecules converted per active site and unit of time at saturation) in assay [5] (NADPH-dependent DCPIP diaphorase activity, 25 °C, pH 8.0) is 22.6 ± 2.3 s⁻¹; in assay [8], 122 ± 18 s⁻¹. In addition, the Km (usually the substrate concentration at which the rate is half of its maximum) in assay [5] (read-out: Km^NADPH, DCPIP as electron acceptor, 25 °C, pH 8.0) came out at 6.6 ± 1.1 µM.
In assay [1], `COc1ccc(C(C)=O)cc1CO/N=C1\CSCc2ccccc21` [C16, 1-{3-[({[(4Z)-3,4-dihydro-1H-2-benzothiopyran-4-ylidene]amino}oxy)methyl]-4-methoxyphenyl}ethan-1-one] had an IC50 of 58 ± 1 µM. The “% Inhibition at ICmax” value in assay [1] (setting [11]) is 79 ± 6%.
As for `O=c1c2ccccc2[se]n1-c1ccccc1` [C2, 2-Phenyl-1,2-benzoselenazol-3-one(ebselen), reference compound], in assay [1] (setting [9]), the “ICmax (concentration causing maximal inhibition)” value is recorded as 300 ± 1 µM. In assay [1] (setting [10]), this molecule displayed a 50% inhibitory concentration (IC50) of 27 ± 1 µM. Moreover, the “% Inhibition at ICmax” value in assay [1] (setting [11]) is on record as “over 90%”; in assay [1] (25 °C, 2% DMSO, pH 8.0, 20 nM XccFPR, 95 µM DCPIP, 50 μM NADPH, listed as 2) it was 95 ± 3%.
`O=C(Nc1cccc(Cl)c1)Nc1ccc(F)c(Cl)c1` [D3, 1-(3-Chloro-4-fluoro-phenyl)-3-(3-chloro-phenyl)-urea] showed an IC50 in assay [1] greater than 5000 µM.
